How the values were obtained:
Type in all cases: cell-based, human
[1] = test system: J82, T24, and UM-UC-3 bladder cancer cell lines
[2] = test system: J82
[3] = test system: UM-UC-3
[4] = test system: T24
[5] = test system: VMCUB-3 transfected with H-ras (G12V)
[6] = test system: MGH-U4 transfected with PTEN shRNA
[7] = test system: MGH-U3
[8] = test system: VMCUB-3

Cc1ccc2c(c1)C(=O)C1(O)CCN(c3ccccc3)C1=N2 (stereo not shown) [blebbistatin]
effect on BCG uptake [1]: not inhibited

O=c1c(-c2ccc(O)cc2)coc2cc(O)cc(O)c12 [genistein]
effect on BCG uptake [2]: significantly inhibited | effect on BCG uptake [3]: not | effect on BCG uptake [4]: not

Oc1ccc2ccccc2c1SSc1c(O)ccc2ccccc12 [IPA-3]
effect on increased BCG uptake in a cell line with activated Ras [5]: inhibited increased BCG uptake | effect on the increase in BCG uptake after PTEN knockdown [6]: completely abrogated the increase in BCG uptake

PTEN shRNA (CCGGCCACAGCTAGAACTTATCAAACTCGAGTTTGATAAGTTCTAGCTGT)
increase in uptake of BCG compared to non-targeting shRNA control [7]: approximately 2 fold | increase in uptake of BCG compared to non-targeting shRNA control [8]: not seen

C[C@@H](N)[C@H]1CC[C@H](C(=O)Nc2ccncc2)CC1 [Y-27632]
effect on BCG uptake [1]: did not have a significant effect

COc1ccc2c(c1)c(C1=C(c3c[nH]c4ccccc34)C(=O)NC1=O)cn2CCCN(C)C [Gö-6983]
effect on BCG uptake [1]: not inhibited

Source: patent US20150185224A1, “[…] CANCER RESPONSIVENESS TO BCG” (MEMORIAL SLOAN-KETTERING CANCER CENTER, priority 2012, published 2015)
